From ChEMBL document CHEMBL1201862, “PubChem BioAssay data set” (2004)
Activity calls are given as the source filed them.

Key:
[1] = HepG2 cell cytotoxicity, dose response, cytotoxicity control, ATP luminescence, cherry-pick, activator set 2 (AID 1053143); assay type: functional, cell-based
[2] = target: Disintegrin and metalloproteinase domain-containing protein 17 (Homo sapiens, UniProt P78536); assay: exosite inhibitors of ADAM17, dose response, biochemical (AID 743260)
[3] = ADAM10 protease inhibitors, dose response, selectivity assay for ADAM17 exosite inhibitor project, biochemical, FRET peptide substrate, recombinant human ADAM10 (AID 743259);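 also: ADAM10 enzyme cleaving a FRET peptide substrate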
[4] = target: T1, fMet-Leu-Phe receptor (Homo sapiens, UniProt P21462); assay: FPR ligands, dose response (AID 519); assay type: functional
T1 sequence (P21462 whole entry): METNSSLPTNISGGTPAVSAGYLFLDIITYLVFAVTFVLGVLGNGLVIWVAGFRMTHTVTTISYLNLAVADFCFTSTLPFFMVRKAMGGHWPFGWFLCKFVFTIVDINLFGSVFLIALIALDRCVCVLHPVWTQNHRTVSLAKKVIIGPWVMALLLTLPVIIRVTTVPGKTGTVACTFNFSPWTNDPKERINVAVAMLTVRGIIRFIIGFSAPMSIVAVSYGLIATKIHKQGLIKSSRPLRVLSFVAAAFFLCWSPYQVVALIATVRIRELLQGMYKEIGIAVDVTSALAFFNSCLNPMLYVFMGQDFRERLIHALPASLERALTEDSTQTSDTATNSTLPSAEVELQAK

[5] = cytotoxicity toward NIH3T3 fibroblasts, dose response, counter-screen, cell-based, ATP luminescence, mouse fibroblasts (AID 2010); assay type: functional;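 also: cells exposed to compound for about 90 hours before reading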
[6] = inhibitors of intracellular T. cruzi replication, confirmation, NIH3T3 host cells, beta-gal luminescence (AID 2044); assay type: functional, cell-based;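 also: intracellular parasites grown in NIH/3T3 mouse fibroblasts as host cells; luminescent beta-galactosidase reporter signal from transgenic T. cruzi replicating inside host cells; inhibitors lower the luminescence signal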
[7] = cells
[8] = tested on: Streptococcus sp. 'group A'; assay: growth inhibition of control SK(-) GAS strain, dose response, counter-screen for streptokinase expression inhibitor project, luminescence, kanamycin, BacTiterGlo, confirmation (AID 1900); assay type: functional, organism-based
[9] = Vero E6 cell cytotoxicity, dose response, cytotoxicity control for non-replicating M. tuberculosis project, secondary assay (AID 492998); assay type: functional, VeroE6; conditions: Vero C1008
[10] = cells; assay type: functional, cell-based
[11] = tested on: Streptococcus; assay: Group A Streptococcus viability loss, dose response, counter-screen for streptokinase expression inhibitor project, luminescence, BacTiterGlo (AID 1915); assay type: functional, organism-based;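 also: potency for reduction of bacterial viability or growth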
[12] = HEK293T cytotoxicity, dose response, cytotoxicity control for miR-122 modulator project, cell-based, inhibitor set, cherry-pick, set 2 (AID 720697); assay type: functional
[13] = cells; assay type: functional, cell-based; remark: listed apart in the source
[14] = HEK293T cytotoxicity, dose response, cytotoxicity control for miR-122 modulator project, cell-based, activator set, cherry-pick (AID 720690); assay type: functional;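 also: HEK293T human cells scored for general mammalian cytotoxicity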
[15] = tested on: INS1; assay: beta cell apoptosis inhibitors, cytokine rescue, dose response, luminescence, retest (AID 449756); assay type: functional, cell-based; conditions: Rattus norvegicus;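 also: cell death triggered by IL-1 beta plus TNF-alpha plus IFN-gamma mixture; protective hits raise ATP signal compared with cytokine alone wells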
[16] = cells; assay type: functional
[17] = THP-1 cell cytotoxicity, dose response, cytotoxicity control for non-replicating M. tuberculosis project (AID 489025); assay type: functional
[18] = miR-122 activators in hepatoma reporter cells, dose response, cell-based, Huh7 psiCHECK-miR122, Renilla luciferase, cherry-picked (AID 651956); assay type: functional;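 also: huh7 hepatoma cells stably carrying a psiCHECK-2 miR-122 sensor plasmid; renilla luciferase signal reporting endogenous miR-122 activity after 48 h compound exposure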
[19] = IOSE-T80 ovarian epithelial cell cytotoxicity, dose response, cytotoxicity control for PAX8 inhibitor project, plate reader, dry powder samples (AID 743045); assay type: functional, cell-based
[20] = NIH:OVCAR-3 ovarian cancer cell cytotoxicity, dose response, PAX8 inhibitor project, plate reader, dry powder samples (AID 743044); assay type: functional, cell-based
[21] = cytotoxicity in OVCAR8 ovarian cancer cells, dose response, PAX8 project, cell-based, plate reader, dry powder samples (AID 743197); assay type: functional; conditions: OVCAR-8
[22] = target: Paired box protein Pax-8 (Homo sapiens, UniProt Q06710); assay: inhibitors of PAX8-driven TPO luciferase reporter, dose response, RMG-I cells, cherry-pick (AID 687027); assay type: functional, cell-based;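 also: luciferase reporter driven by Pax8 target thyroperoxidase promoter measured by SteadyGlo luminescence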
Chain of Paired box protein Pax-8 (Q06710 whole entry): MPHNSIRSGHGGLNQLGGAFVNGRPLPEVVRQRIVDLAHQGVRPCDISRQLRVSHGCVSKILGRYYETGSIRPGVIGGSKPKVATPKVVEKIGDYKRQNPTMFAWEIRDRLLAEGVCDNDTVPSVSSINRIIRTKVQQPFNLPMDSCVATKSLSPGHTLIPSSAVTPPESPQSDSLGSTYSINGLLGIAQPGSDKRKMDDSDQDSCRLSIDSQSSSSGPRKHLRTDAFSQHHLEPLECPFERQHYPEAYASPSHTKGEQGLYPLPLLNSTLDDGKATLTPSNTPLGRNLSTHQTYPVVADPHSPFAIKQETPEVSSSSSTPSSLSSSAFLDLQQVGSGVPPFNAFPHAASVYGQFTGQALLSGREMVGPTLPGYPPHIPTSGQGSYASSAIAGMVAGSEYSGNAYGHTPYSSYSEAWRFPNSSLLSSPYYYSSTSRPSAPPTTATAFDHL

[23] = CellTiter-Glo luminescent dose response of DLD-1 viability loss (AID 1117352); assay type: functional
[24] = cytotoxicity toward Colo320 cells – cell-based, CellTiter-Glo luminescence, IC50, dose response (AID 1117334); assay type: functional; conditions: COLO 320
[25] = RKO cell viability reduction, dose response, CellTiter-Glo luminescence (AID 1117322); assay type: functional
[26] = HCT116 cell viability decrease, GSK3B pretreatment – CellTiter-Glo, IC50, dose response (AID 1117339); assay type: functional; conditions: HCT-116
[27] = cytotoxicity toward HCT116 cells – cell-based, CellTiter-Glo luminescence, IC50, dose response (AID 1117332); assay type: functional; conditions: HCT-116
[28] = SNU-C1 cell viability reduction, dose response, CellTiter-Glo luminescence (AID 1117323); assay type: functional, cell-based
[29] = target: T2, Rac GTPase-activating protein 1 (Homo sapiens, UniProt Q9H0H5); assay: MgcRacGAP GTPase-activating activity inhibitors, confirmation, biochemical, ADP Hunter fluorescence, primary and confirmatory (AID 624330); assay type: functional
T2 sequence (Q9H0H5 whole entry): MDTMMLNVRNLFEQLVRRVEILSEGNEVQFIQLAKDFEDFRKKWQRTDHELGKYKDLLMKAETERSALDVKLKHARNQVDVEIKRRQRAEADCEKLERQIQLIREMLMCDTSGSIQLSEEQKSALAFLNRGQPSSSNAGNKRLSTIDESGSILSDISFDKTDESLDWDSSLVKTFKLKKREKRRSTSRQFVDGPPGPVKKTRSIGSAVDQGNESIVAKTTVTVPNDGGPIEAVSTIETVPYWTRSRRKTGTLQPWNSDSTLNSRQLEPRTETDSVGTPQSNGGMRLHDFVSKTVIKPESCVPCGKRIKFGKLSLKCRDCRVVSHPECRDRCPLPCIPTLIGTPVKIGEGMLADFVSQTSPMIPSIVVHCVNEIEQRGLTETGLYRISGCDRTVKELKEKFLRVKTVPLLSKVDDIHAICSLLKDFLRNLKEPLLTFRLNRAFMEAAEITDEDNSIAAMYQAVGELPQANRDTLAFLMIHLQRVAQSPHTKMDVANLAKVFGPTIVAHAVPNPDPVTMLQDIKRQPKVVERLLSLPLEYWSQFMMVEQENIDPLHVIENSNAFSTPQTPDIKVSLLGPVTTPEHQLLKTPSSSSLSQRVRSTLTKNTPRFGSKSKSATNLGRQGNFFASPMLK

[30] = target: Cytochrome P450 3A4 (Homo sapiens, UniProt P08684); conditions: Potency;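 also: confirmatory qHTS run detecting inhibitors and substrates of CYP3A4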
Chain of Cytochrome P450 3A4 (P08684 whole entry): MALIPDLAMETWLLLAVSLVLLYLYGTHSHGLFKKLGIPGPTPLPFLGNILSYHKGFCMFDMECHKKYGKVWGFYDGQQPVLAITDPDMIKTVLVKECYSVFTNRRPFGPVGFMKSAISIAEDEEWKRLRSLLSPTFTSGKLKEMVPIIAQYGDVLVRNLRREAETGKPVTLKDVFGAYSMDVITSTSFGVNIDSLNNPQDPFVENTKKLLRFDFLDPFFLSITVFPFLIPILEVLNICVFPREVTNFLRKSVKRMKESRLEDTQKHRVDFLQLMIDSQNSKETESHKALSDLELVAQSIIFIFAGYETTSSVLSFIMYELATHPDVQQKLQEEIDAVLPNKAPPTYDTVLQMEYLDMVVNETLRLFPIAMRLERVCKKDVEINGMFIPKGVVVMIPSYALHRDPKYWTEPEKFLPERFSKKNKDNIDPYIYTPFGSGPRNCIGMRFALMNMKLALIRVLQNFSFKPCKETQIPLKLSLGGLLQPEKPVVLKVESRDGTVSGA

Chain of Disintegrin and metalloproteinase domain-containing protein 17 (P78536 whole entry, the tested form may be a part): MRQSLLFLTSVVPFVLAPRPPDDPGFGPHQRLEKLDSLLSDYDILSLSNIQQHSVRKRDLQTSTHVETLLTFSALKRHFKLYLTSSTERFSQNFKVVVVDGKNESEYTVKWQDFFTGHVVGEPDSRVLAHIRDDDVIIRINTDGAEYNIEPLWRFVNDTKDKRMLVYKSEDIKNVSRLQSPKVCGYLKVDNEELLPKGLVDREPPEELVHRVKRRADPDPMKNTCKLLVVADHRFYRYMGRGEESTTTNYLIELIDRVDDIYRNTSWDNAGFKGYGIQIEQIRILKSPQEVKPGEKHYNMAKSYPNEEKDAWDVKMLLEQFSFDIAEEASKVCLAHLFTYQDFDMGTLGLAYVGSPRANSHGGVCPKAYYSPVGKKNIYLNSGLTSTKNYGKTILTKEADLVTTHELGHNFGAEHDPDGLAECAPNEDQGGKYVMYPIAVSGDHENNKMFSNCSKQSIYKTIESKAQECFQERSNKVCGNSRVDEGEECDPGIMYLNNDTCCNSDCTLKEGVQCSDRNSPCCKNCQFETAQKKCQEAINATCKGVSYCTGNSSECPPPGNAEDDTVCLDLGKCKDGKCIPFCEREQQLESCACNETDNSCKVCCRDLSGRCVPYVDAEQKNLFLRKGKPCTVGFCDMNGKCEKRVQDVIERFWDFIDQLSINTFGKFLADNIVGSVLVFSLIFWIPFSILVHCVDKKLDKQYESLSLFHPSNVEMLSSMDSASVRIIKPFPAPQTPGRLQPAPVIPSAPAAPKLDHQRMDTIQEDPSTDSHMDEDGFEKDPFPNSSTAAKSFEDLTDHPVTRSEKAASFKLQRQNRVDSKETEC

O=C(/C=C\c1ccco1)Oc1cccc2cccnc12
AC50 [1]: 26 µM (active)

O=C(CSc1nc2ccccc2c(=O)n1-c1ccccc1Cl)Nc1cccc(S(=O)(=O)N2CCOCC2)c1
IC50 [2]: > 69.5 µM (inactive)
IC50 [3]: > 69.5 µM (inactive)

COc1ccccc1Oc1c(C)oc2cc(OC(=O)c3ccco3)ccc2c1=O
Ki [4]: 19.4 µM (inactive)

O=C(Nc1ccncc1)Nc1ccc(Cl)cc1Cl
EC50 [5]: > 60 µM (not active)
EC50 [6]: < 0.1 µM (active)
EC50 [7]: 0.079 µM (active)

Oc1ccccc1/C=N/Nc1nc2ccccc2o1
EC50 [5]: > 60 µM (not active)
EC50 [8]: 1.9 µM (active)
CC50 [9]: 2.59 µM (active)
EC50 [10]: > 350 µM (not active)
EC50 [11]: 4.17 µM (active)
AC50 [12]: 2.53 µM (active)
EC50 [13]: 4.02 µM (active)
AC50 [14]: 5.79 µM (active)
AC50 [15]: 1.59 µM (active)
EC50 [6]: 2.92 µM (active)
IC50 [16]: 33.3 µM (active)
CC50 [17]: 1.68 µM (active)

CN1C(=O)c2cc(NC(=O)c3ccc(C(F)(F)F)cc3)ccc2OC[C@@H]2O[C@@H](CC(=O)NC3Cc4ccccc4C3)CC[C@@H]21
AC50 [12]: < 0.195 µM (active)
AC50 [14]: 49.1 µM (active)
AC50 [18]: 4.71 µM (active)

O=S(=O)(c1ccccc1F)N1CC[C@H]2[C@H](CO)Nc3ccc(C4=CCCCC4)cc3[C@H]21
AC50 [19]: 32.9 µM (active)
AC50 [20]: 18.4 µM (active)
AC50 [21]: 26.7 µM (active)
AC50 [22]: 6.12 µM (active)

O=C(OCc1ccccc1)c1cccnc1 [BENZYL NICOTINATE]
IC50 [23]: > 20 µM (inactive)
IC50 [24]: > 20 µM (inactive)
IC50 [25]: > 20 µM (inactive)
IC50 [26]: > 20 µM (inactive)
IC50 [27]: > 20 µM (inactive)
IC50 [28]: > 20 µM (inactive)

Cc1cc(-c2ccc(N)c(C)c2)ccc1N [ORTHOTOLIDINE]
IC50 [29]: 12.2 µM (active)
AC50 [30]: 20 µM (inconclusive)

C=C(Cl)CSC(=S)N(CC)CC [SULFALLATE]
AC50 [30]: 10 µM (inconclusive)
